Results as given in paper PMC7140498, “Predicting liver cytosol stability of small molecules” (Journal of Cheminformatics, 2020).
Where two headings read alike, the source gives them in different places.

What was measured:
[1] = human, cytosol
Method: (§1) Our assay (384-well format) consisted of two parts; a robotic system for incubation and sample clean up and an integrated LC/MS method to calculate the percent remaining of parent compound. Briefly, each reaction mixture (110 μL) consisted of a test compound (1 μM) and either human or mouse cytosol fractions (2 mg/mL) in phosphate buffer (100 mM) at pH 7.4. Samples were incubated in 384-well plates at 37 °C for 0, 5, 10, 15, 30 and 60 min. Sample analysis and t1/2 calculations were performed using a previously described method [15]. […] A set of control compounds for low and high cytosolic stability were routinely run in each plate.

[2] = Metabolic stability assay (substrate depletion) in mouse liver cytosol fractions; conditions: for half-life at 1 μM: male, CD-1, mouse, cytosol, control compounds, 17 plates
Method: as §1

[3] = Metabolic stability assay (substrate depletion) in human liver cytosol fractions; conditions: both, human, cytosol, control compounds, 17 plates
Method: as §1

[4] = design: method as in PMID 21385103; conditions: clinical trials terminated; cited from earlier work
[5] = design: method as in PMID 20421447; conditions: development discontinued in 2008; cited from earlier work

With `O=C(c1ccc(-c2ncc3cnc(-c4cccc(F)c4)cn23)cc1)N1CCc2cccnc21` the “t1/2 [min] (Left)” value [1] was 17.3 min.

With `Cc1cc(=O)n(-c2ccccc2)n1C` [Antipyrine, reference compound] the half-life at 1 μM ([2]; pH 7.4, t1/2 (mean ± SD) (Mouse cytosol), 1 μM, 2 mg/mL cytosol, pH 7.4, 37 °C) was > 120 min, the half-life at 1 μM ([2]; pH 7.4, t1/2 category (Mouse cytosol)) was > 30 min and the half-life at 1 μM ([3]; pH 7.4, t1/2 (mean ± SD) (Human cytosol), 1 μM, 2 mg/mL cytosol, pH 7.4, 37 °C) was > 120 min. The half-life at 1 μM ([3]; pH 7.4, t1/2 category (Human cytosol)) was > 30 min.

In the case of `CC(C)n1nc(-c2cnc(N)nc2-c2ccccc2)ccc1=O` [FK3453], the “levels of parent compound in human plasma” value [4] is given as “abnormally low levels”.

With `O=c1cc(N2CCOCC2)oc2c(-c3cccc(F)c3)nccc12` [O=c1cc(N2CCOCC2)oc2c(-c3cccc(F)c3)nccc12] the “t1/2 [min] (Left)” value [1] was > 120 min.

In the case of `OCC1(CN2CCCC2)CCN(Cc2ccc(Cl)cc2)CC1` [OCC1(CN2CCCC2)CCN(Cc2ccc(Cl)cc2)CC1], the “t1/2 [min] (Left)” value ([2]; external validation, sheet Mouse, left compound) is reported as 54.48 min.

In the case of `Cn1cc(-c2ccc3nnc(Sc4ccc5ncccc5c4)n3n2)cn1` [SGX523], the “toxicity reported in development” value [5] is listed as “dose-limiting renal toxicity”.
